{"source": "paper PMC10847306", "about": "“The antibacterial activity and mechanism of a novel peptide MR-22 against multidrug-resistant Escherichia coli” (Frontiers in Cellular and Infection Microbiology, 2024)", "key": {"E. coli E19 [1]": {"system": "E. coli E19", "assay": "Time-kill assay", "assay_type": "cell-based, Escherichia coli", "settings": "1 × MIC ('1 × MIC and 2 × MIC, respectively' for E19 and ATCC 25922), 1.0×10^6 CFU/mL, 37°C, colony counts", "procedure": "(§1) The time-kill kinetics of MR-22 on E. coli were determined following the protocol described by ([Lu et al., 2022]). The bacterial suspensions (1.0×10^6 CFU/mL) were mixed with different concentrations of MR-22, then cultured at 37°C. The final concentrations of MR-22 ranged 1, 2, 4 ×MIC. At 0, 1, 2, 4, 6, 12, and 24 h, 10 μL aliquot samples were diluted in 90 μL PBS and 5 μL aliquot of the dilutions was spread onto LB agar plates. After incubation at 37°C for 24 h, the colony counts were determined and the time-killing curve was plotted."}, "E. coli ATCC 25922 [2]": {"system": "E. coli ATCC 25922", "assay": "Time-kill assay", "assay_type": "cell-based, Escherichia coli", "settings": "2 × MIC ('1 × MIC and 2 × MIC, respectively' for E19 and ATCC 25922), 1.0×10^6 CFU/mL, 37°C, colony counts", "procedure": "as §1"}, "E. coli ATCC 25922 [3]": {"system": "E. coli ATCC 25922", "assay_type": "cell-based, Escherichia coli", "procedure": "In order to study the activity of MR-22 in high-salt concentration, mice serum, different temperatures or trypsin, MIC once again conducted tests as described above.\n[…] The resulting solutions were subjected to MIC testing to evaluate any alterations in the antimicrobial activity of MR-22.\nTo assess the thermal stability of MR-22, it was subjected to various temperatures (40°C, 60°C, 80°C, and 100°C) for 30 min. Then, reducing to room temperature, and the MIC was subsequently determined.\nMR-22 was mixed with a solution containing 1 μg/ml of trypsin and incubated at 37°C for 2 to 12h. Then, trypsin inactivation was carried out at 60°C for 30 min. The antimicrobial activity of the samples was tested to assess the activity of MR-22 and its analogs after the treatment by trypsin. The untreated MR-22 served as the control group for comparative analysis."}, "[4]": {"system": "E. coli clinical strain E14", "assay": "microbe, parasite or virus in culture", "settings": "clinical strain E14, 18 h", "procedure": "(§2) The clinical strains used in this study were obtained from a tertiary healthcare facility located in Guiyang, a city situated within the Guizhou Province of China. The E. coli ATCC 25922 was obtained from the Key and Characteristic Laboratory of Modern Pathogen Biology at Guizhou Medical University in Guiyang, China. All strains were stored at –80°C in LB medium and routinely cultured at LB medium at 37°C.\n(§3) The MIC were determined by a micro dilution method in Mueller-Hinton broth (MHB) ([Cuenca-Estrella et al., 2010]). The final concentration of bacterial suspension in MHB were 1.0×10^6 CFU/mL. The final concentration of MR-22 ranged 1 ~ 256 μg/mL in 96 wells plate broth at 37°C for 16~18 h. Imipenem was employed as positive control, bacterial grown without treatment as negative control and MHB as blank control. MIC determination was performed by reading the OD600 nm. Take 100 μL samples in holes that have never seen bacterial growth and place them on the LB agar board. The concentration of MR-22 with no bacterial growth was defined as the MBC."}, "[5]": {"system": "E. coli clinical strain E05", "assay": "microbe, parasite or virus in culture", "settings": "clinical strain E05, 18 h", "procedure": "as §2, §3"}, "[6]": {"system": "E. coli clinical strain E22", "assay": "microbe, parasite or virus in culture", "settings": "clinical strain E22, 18 h", "procedure": "as §2, §3"}, "E. coli E19 [7]": {"system": "E. coli E19", "assay": "Membrane permeability assay (PI, flow cytometry)", "assay_type": "cell-based, Escherichia coli", "settings": "1 h, untreated 2.13%", "procedure": "(§4) According to the previously described method ([Fadhel Abbas Albaayit et al., 2022]), bacterial suspensions were diluted with PBS to concentration of 1.0×10^6 CFU/mL. […] 10 μM of propidium iodide (PI; Sigma, US) was added to each group and incubated at 37°C for 15 min in the dark. The samples were analyzed using a CytoFLEX flow cytometry (Beckman Coulter, USA), and the positive rate of PI was utilized as an indicator of bacterial membrane permeability."}, "E. coli ATCC 25922 [8]": {"system": "E. coli ATCC 25922", "assay": "Membrane permeability assay (PI, flow cytometry)", "assay_type": "cell-based, Escherichia coli", "settings": "1 h, untreated 0.79%", "procedure": "as §4"}, "[9]": {"system": "E. coli ATCC 25922 and E19", "assay": "Intracellular ATP determination", "assay_type": "cell-based, Escherichia coli", "settings": "MR-22 1, 2, 4 × MIC, 1 h, 37°C; compared to the control group; dose-dependent", "procedure": "The MR-22 solution was added to bacterial suspensions (1.0 × 10^6 CFU/mL) at different final concentrations (1, 2, 4 × MIC) incubated at 37°C for 1 h. The mixture was subsequently centrifuged and the resulting supernatants were collected. Finally, the intracellular ATP concentration was determined using an ATP Assay Kit (Beyotime, China) according to the manufacturer’s instruction."}, "E. coli E19 [10]": {"system": "E. coli E19", "assay": "Mice peritonitis model", "assay_type": "in vivo", "settings": "C57BL/6J mice", "procedure": "This study utilized female C57BL/6J mice aged 6-8 weeks, weight range of 18-20 g, which were obtained from SPF Biotechnology Co., Ltd (Beijing, China). The animals were housed under maintained on a standard 12 h light/12 h dark cycle. All animal experiments were conducted in accordance with the Ethical Principles in Animal Research adopted by Guizhou Medical University and were approved by the Institutional Animal Care and Use Committee.\nTo evaluate the in vivo efficacy of MR-22, we used a mice peritonitis model. A total of 60 mice were divided into three groups: treatment group (10 mg/kg MR-22, intraperitoneal injection), positive control group (10 mg/kg imipenem, intraperitoneal injection), and normal control group (PBS, intraperitoneal injection). Peritonitis was induced by intraperitoneal injection of 1.0 × 10^8 CFU bacterial inoculum in 0.2 mL of E. coli E19. Survival rates were recorded every 12 h for 7 days.\nTo study the protective effects of MR-22, 10 mice in each group were sacrificed, and peritoneal lavage fluid, blood, liver, and kidney were collected 36 h after administration. The number of colonies in peritoneal lavage fluid and blood were determined by culturing on LB agar, while the tissues were fixed in 4% paraformaldehyde and subjected to hematoxylin and eosin staining to study the morphology."}}, "data": [{"substance": "H-MAKRRKKAKKKAKKAKKRRRRR-NH2 [MR-22]", "values": [{"measurement": "time to eliminate the bacteria (time-kill)", "setting": "E. coli E19 [1]", "value": "≤ 2", "unit": "h"}, {"measurement": "time to eliminate the bacteria (time-kill)", "setting": "E. coli ATCC 25922 [2]", "value": "≤ 2", "unit": "h"}, {"measurement": "MIC, 150 μM Na^+", "setting": "E. coli ATCC 25922 [3]; ATCC 25922, 16 h", "value": 256, "unit": "µg/mL"}, {"measurement": "MIC, 10% FBS", "setting": "E. coli ATCC 25922 [3]; ATCC 25922, 16 h", "value": 16, "unit": "µg/mL"}, {"measurement": "MIC, 10% Serum", "setting": "E. coli ATCC 25922 [3]; ATCC 25922, 16 h", "value": 64, "unit": "µg/mL"}, {"measurement": "MIC, 40°C 30 min", "setting": "E. coli ATCC 25922 [3]; ATCC 25922, 16 h", "value": 16, "unit": "µg/mL"}, {"measurement": "MIC, 60°C 30 min", "setting": "E. coli ATCC 25922 [3]; ATCC 25922, 16 h", "value": 16, "unit": "µg/mL"}, {"measurement": "MIC, 80°C 30 min", "setting": "E. coli ATCC 25922 [3]; ATCC 25922, 16 h", "value": 16, "unit": "µg/mL"}, {"measurement": "MIC, 100°C 30 min", "setting": "E. coli ATCC 25922 [3]; ATCC 25922, 16 h", "value": 16, "unit": "µg/mL"}, {"measurement": "MIC, Control", "setting": "E. coli ATCC 25922 [3]; ATCC 25922, 16 h", "value": 16, "unit": "µg/mL"}, {"measurement": "MIC, 1 μg/mL Trypsin", "setting": "E. coli ATCC 25922 [3]; E. coli ATCC 25922, MR-22 incubated with 1 μg/ml trypsin at 37°C (2 to 12 h), trypsin inactivated 60°C 30 min", "value": ">256", "unit": "µg/mL"}, {"measurement": "MBC", "setting": "[4]", "value": 16, "unit": "µg/mL"}, {"measurement": "MIC", "setting": "[4]", "value": 16, "unit": "µg/mL"}, {"measurement": "MBC", "setting": "[5]", "value": 16, "unit": "µg/mL"}, {"measurement": "MIC", "setting": "[5]", "value": 16, "unit": "µg/mL"}, {"measurement": "MBC", "setting": "[6]", "value": 16, "unit": "µg/mL"}, {"measurement": "MIC", "setting": "[6]", "value": 16, "unit": "µg/mL"}, {"measurement": "percentage of PI-positive cells", "setting": "E. coli E19 [7]; 1 × MIC", "value": 7.83, "unit": "%"}, {"measurement": "percentage of PI-positive cells", "setting": "E. coli E19 [7]; 2 × MIC", "value": 14.35, "unit": "%"}, {"measurement": "percentage of PI-positive cells", "setting": "E. coli E19 [7]; 4 × MIC", "value": 25.14, "unit": "%"}, {"measurement": "PI fluorescence signals (PI-positive cells)", "setting": "E. coli ATCC 25922 [8]; 1 × MIC", "value": 9.19, "unit": "%"}, {"measurement": "PI fluorescence signals (PI-positive cells)", "setting": "E. coli ATCC 25922 [8]; 2 × MIC", "value": 39.10, "unit": "%"}, {"measurement": "PI fluorescence signals (PI-positive cells)", "setting": "E. coli ATCC 25922 [8]; 4 × MIC", "value": 53.20, "unit": "%"}, {"measurement": "intracellular ATP concentration", "setting": "[9]", "value": "significantly reduced"}, {"measurement": "bacterial content in the peritoneal lavage fluid", "setting": "E. coli E19 [10]; E19 peritonitis, 10 mg/kg 1 h after infection, after 36 h, ten mice per group, control group 8.73 ± 0.38", "value": "7.23 ± 0.36", "unit": "Log10CFU/mL"}, {"measurement": "72-h survival rate", "setting": "E. coli E19 [10]; peritonitis by 1.0 × 10^8 CFU E. coli E19 i.p., 10 mg/kg intraperitoneal injection, infected group 0%", "value": 40, "unit": "%"}]}]}
